These compounds were tested on Bacillus globigii spores. Settings: relative germination; phase change monitored at 450 nm over 10 minutes; 3.6×10^8 spores per ml in 20 mM potassium phosphate buffer (pH 7.4).
Assay type: cell-based
Protocol: Bacillus cultures were grown at 30° C. with moderate aeration for 7 days. Spores were harvested by centrifugation at 10,900×g for 30 minutes at 4° C. and resuspended in 200 milliliters (ml) of sterile distilled water and washed 7 to 10 times, heated to 65° C. for 15 minutes to kill any vegetative cells, and stored at 4° C. Spore populations were determined from the average of 3 serial dilution plates.
B. globigii spores (500 microliters (μl)) were diluted to a concentration of 3.6×10^8 spores per ml in 20 millimolar (mM) potassium phosphate buffer (pH 7.4), and mixed with 500 μl of a 0.12 M solution of one or more of L-alanine, L-asparagine and D-glucose, together with DPA and other chemicals to test the effectiveness of various combinations as germinating agents. The phase change of the spores in the germinants was monitored at 450 nm over a period of 10 minutes.

Compound	Percent germination [%]
C[C@H](N)C(=O)O [20 mM L-alanine, L-alanine]	50.1
NC(=O)C[C@H](N)C(=O)O [20 mM L-asparagine, L-asparagine]	5.2
O=C(O)c1cccc(C(=O)O)n1 [20 mM DPA, pyridine-2,6-dicarboxylic acid]	7.3
O=C[C@H](O)[C@@H](O)[C@H](O)[C@H](O)CO [20 mM D-glucose, D-glucose]	7.0
